Results on ten molecules are retold here after patent publication US6756374B2, “Diaminothiazoles having antiproliferative activity” (Hoffmann-La Roche Inc., priority 2001, dated 2004).

One test addresses human cyclin D1-CDK4 (Homo sapiens, UniProt P11802). The experiment in a line: FlashPlate kinase assay, cyclin D1-CDK4. The test is classed as biochemical. To be noted: Rb protein substrate, 1 μM ATP. Here is the method:
(§1) To determine inhibition of Cdk4, Cdk2 and Cdk1 activity, kinase assays were conducted using FlashPlate™ assays (NEN™-Life Science Products). FlashPlate assays were performed using recombinant human cyclin B-CDK1, human cyclin E-CDK2 or human cyclin D1-CDK4 complexes. GST-cyclinE (GST-cycE), CDK2, GST-cyclinB (GST-cycB), CDK1, GST-CDK4 and cyclin D1 (cycD1) cDNA clones in baculovirus vectors were provided by Dr. W. Harper at the Baylor College of Medicine, Houston, Tex.
(§2) The expression of the 62Kd protein was under the control of an IPTG inducible promoter in an M15 E. coli strain. Cells were lysed by sonication and purification was carried out by binding lysates at pH 8.0 to a Ni-chelated agarose column pretreated with 1 mM imidazole. The resin was then washed several times with incrementally decreasing pH buffers to pH 6.0, and eluted with 500 mM imidazole. Eluted protein was dialysed against 20 mM HEPES pH 7.5, 30% glycerol, 200 mM NaCl, and 1 mM DTT. Purified Rb fusion protein stocks were quantitated for protein concentration, aliquoted, and stored at −70° C.
(§3) For all three kinase assays reported herein, 96-well FlashPlates were coated with Rb protein at 10 μg/ml, using 100 μl per well. Plates were incubated at 4° C. overnight or at room temperature for 3 hours on a shaker. To control for nonspecific phosphorylation, one row of wells was coated with 100 μl/well coating buffer (20 mM HEPES, 0.2 M NaCl). Plates were then washed twice with wash buffer (0.01% Tween 20 in phosphate-buffered saline). Compounds to be tested (“test compounds”) were added to the wells at 5×final concentration. Reactions were initiated by immediate addition of 40 μl reaction mix (25 mM HEPES, 20 mM MgCl2, 0.002% Tween 20, 2 mM DTT, 1 μM ATP, 4 nM ^33P-ATP) and a sufficient amount of enzyme to give counts that were at least 10-fold above background. Plates were incubated at room temperature on a shaker for 30 minutes. Plates were washed four times with the wash buffer, sealed, and counted on the TopCount scintillation counter (Packard Instrument Co., Downers Grove, Ill.]. The percent inhibition of Rb phosphorylation, which is a measure of the inhibition of CDK activity, was determined according to the following formula: [formula]
(§4) where “test compound” refers to the average counts per minute of the test duplicates, “nonspecific” refers to the average counts per minute when no CyclinD/Cdk4, etc., was added, and “total” refers to the average counts per minute when no compound was added.

The next test concerns the target human cyclin E-CDK2 (Homo sapiens, UniProt P24941). The test can be described thus: FlashPlate kinase assay, cyclin E-CDK2. The conditions noted are these: Rb protein substrate, 1 μM ATP. The format is biochemical. The method, then: as §1, §2, §3, §4
Another test concerns the target human cyclin B-CDK1 (Homo sapiens, UniProt P06493). The experiment in a line: FlashPlate kinase assay, cyclin B-CDK1. The test is classed as biochemical. To be noted: Rb protein substrate, 1 μM ATP. Here is the method: as §1, §2, §3, §4
The test system of the next test is HCT116. The test can be described thus: Tetrazolium dye (MTT) proliferation assay. The format is cell-based. To be noted: Homo sapiens, HCT-116; HCT116 colorectal carcinoma cell line. Here is the method: The cell line used was HCT116, a colorectal carcinoma cell line obtained from the American Type Cell Culture Collection (ATCC;
Rockville, Md.). The cells were grown in McCoy's 5A medium supplemented with 10% FCS and L-glutamine.
Cells were plated at the appropriate seeding density to give logarithmic growth over the course of the assay in a 96-well tissue culture plate. Plates were incubated overnight at 37° C. in a humidified incubator with 5% CO2. The next day, test compounds were serially diluted to four times the final concentration in the appropriate medium containing 1.2% DMSO. One-fourth final volume of each dilution was added in duplicate to the plates containing cells. The same volume of 1.2% DMSO in medium was added to a row of “control wells” such that the final concentration of DMSO in each well was 0.3%. Wells to which no cells were added served as the “blank.” Wells to which no inhibitor was added served as “no inhibitor control.” The plates were) returned to the incubator, and at set time points (determined by their growth curves) plates were analyzed as described below.
3-(4,5-dimethylthiazole-2-yl)-2,5-diphenyl-2H-tetrazolium bromide (thiazolyl blue; MTT; Sigma) was added to each well to yield a final concentration of 1 mg/ml. Plates were returned to the incubator for 2.5-3 hours at 37° C. The MTT-containing medium was removed and the resulting formazan metabolite was solubilized in 100% ethanol with shaking for 15 minutes at room temperature. Absorbance readings were taken in a microtiter plate reader (Dynatech and Molecular Devices plate readers were used interchangeably) at a wavelength of 570 nm with a 650 nm reference. Percent inhibition (% INH) is calculated by subtracting the absorbance of the blank well from all wells, then subtracting the ratio of the average absorbance of each test duplicate (SAVE) by the average of the controls (CAVE) from 1.00. The final number is then multiplied by 100 (% INH=(1.00−SAVE/CAVE)×100).

Sequence of human cyclin B-CDK1 (P06493 whole entry): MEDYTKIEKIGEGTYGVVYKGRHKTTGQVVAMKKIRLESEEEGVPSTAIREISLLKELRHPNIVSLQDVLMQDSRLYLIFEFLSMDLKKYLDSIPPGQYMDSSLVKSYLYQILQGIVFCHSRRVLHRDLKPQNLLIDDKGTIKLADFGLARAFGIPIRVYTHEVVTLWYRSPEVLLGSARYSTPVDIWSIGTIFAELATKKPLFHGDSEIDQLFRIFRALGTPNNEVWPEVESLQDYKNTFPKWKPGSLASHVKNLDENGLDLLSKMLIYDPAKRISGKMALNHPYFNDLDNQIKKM
Sequence of human cyclin B-CDK1 (P14635 whole entry partner): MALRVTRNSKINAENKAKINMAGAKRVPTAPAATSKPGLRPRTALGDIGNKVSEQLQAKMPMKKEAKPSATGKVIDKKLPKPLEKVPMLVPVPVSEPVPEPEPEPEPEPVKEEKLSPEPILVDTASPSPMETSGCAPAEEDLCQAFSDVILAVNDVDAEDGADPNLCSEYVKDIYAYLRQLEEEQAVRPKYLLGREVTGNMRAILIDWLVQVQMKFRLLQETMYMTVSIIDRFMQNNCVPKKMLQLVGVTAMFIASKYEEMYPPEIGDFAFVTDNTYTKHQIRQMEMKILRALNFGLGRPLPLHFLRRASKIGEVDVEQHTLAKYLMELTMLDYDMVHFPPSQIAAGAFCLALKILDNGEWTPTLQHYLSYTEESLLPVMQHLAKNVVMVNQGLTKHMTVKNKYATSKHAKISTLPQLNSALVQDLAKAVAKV
Sequence of human cyclin D1-CDK4 (P11802 whole entry): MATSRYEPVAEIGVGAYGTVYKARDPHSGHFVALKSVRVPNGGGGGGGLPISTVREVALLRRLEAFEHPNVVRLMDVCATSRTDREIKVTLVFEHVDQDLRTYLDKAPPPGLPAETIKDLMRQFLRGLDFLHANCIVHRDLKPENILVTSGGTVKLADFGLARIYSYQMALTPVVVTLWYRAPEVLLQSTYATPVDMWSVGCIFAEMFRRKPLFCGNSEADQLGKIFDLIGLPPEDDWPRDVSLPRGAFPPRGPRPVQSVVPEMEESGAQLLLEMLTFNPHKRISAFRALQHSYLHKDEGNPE
Sequence of human cyclin D1-CDK4 (P24385 whole entry partner): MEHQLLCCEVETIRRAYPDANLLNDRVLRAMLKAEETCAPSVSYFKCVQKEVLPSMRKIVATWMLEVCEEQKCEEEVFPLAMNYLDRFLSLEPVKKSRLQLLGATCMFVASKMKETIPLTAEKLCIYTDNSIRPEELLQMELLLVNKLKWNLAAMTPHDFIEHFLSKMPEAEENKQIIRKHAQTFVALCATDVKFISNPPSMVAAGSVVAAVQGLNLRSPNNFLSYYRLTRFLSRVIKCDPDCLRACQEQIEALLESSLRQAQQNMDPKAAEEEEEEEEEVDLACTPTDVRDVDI

What is called IC50 is the concentration that inhibits the measured activity by half. A low value points to greater potency. Take `COc1cc(OC)cc(C(=O)c2sc(Nc3ccc(N4CCN(C)CC4)c(F)c3)nc2N)c1` [Example 39, [4-Amino-2-[[3-fluoro-4-(4-methyl-1-piperazinyl)phenyl]amino]-5-thiazolyl](3,5-dimethoxyphenyl)methanone]: the IC50 turned out to be 0.021 µM against human cyclin D1-CDK4, 7.9 µM at human cyclin E-CDK2, 2.8 µM against human cyclin B-CDK1 and 3.6 µM in the test with HCT116.
With `COc1cccc(C(=O)c2sc(Nc3ccc(N4CCN(C)CC4)c(F)c3)nc2N)c1` [Example 40, [4-Amino-2-[[3-fluoro-4-(4-methyl-1-piperazinyl)phenyl]amino]-5-thiazolyl](3-methoxyphenyl)methanone], the IC50 at human cyclin D1-CDK4 came out at 0.014 µM; on human cyclin E-CDK2, 3.1 µM; against human cyclin B-CDK1, 1.3 µM; in the test with HCT116, 3 µM.
As to `CC(C)N1CCN(c2ccc(Nc3nc(N)c(C(=O)c4ccc5c(c4)OCCO5)s3)cc2)CC1` [Example 41, [4-Amino-2-[[4-[4-(1-methylethyl)-1-piperazinyl]phenyl]amino]-5-thiazolyl](2,3-dihydro-1,4-benzodioxin-6-yl)methanone], the IC50 against human cyclin D1-CDK4 was 0.015 µM; on human cyclin E-CDK2, 3.7 µM; on human cyclin B-CDK1, 2.9 µM; in the test with HCT116 it was 3 µM.
For `CC(C)N1CCN(c2ccc(Nc3nc(N)c(C(=O)c4ccc5c(c4)OCO5)s3)cc2)CC1` [Example 42, [4-Amino-2-[[4-[4-(1-methylethyl)-1-piperazinyl]phenyl]amino]-5-thiazolyl](1,3-benzodioxol-5-yl)methanone], the IC50 came out at 0.01 µM against human cyclin D1-CDK4, 2.9 µM against human cyclin E-CDK2, 1.9 µM against human cyclin B-CDK1 and 1.5 µM in the test on HCT116.
As to `COc1cccc(C(=O)c2sc(Nc3ccc(N4CCN(C(C)C)CC4)cc3)nc2N)c1` [Example 43, [4-Amino-2-[[4-[4-(1-methylethyl)-1-piperazinyl]phenyl]amino]-5-thiazolyl](3-methoxyphenyl)methanone], the IC50 against human cyclin D1-CDK4 was 0.021 µM; against human cyclin E-CDK2, 3.4 µM; against human cyclin B-CDK1, 1.9 µM; in the test with HCT116 it was 1.3 µM.
For `COc1cc(OC)cc(C(=O)c2sc(Nc3ccc(N4CCN(C(C)C)CC4)cc3)nc2N)c1` [Example 44, [4-Amino-2-[[4-[4-(1-methylethyl)-1-piperazinyl]phenyl]amino]-5-thiazolyl](3,5-dimethoxyphenyl)methanone], the IC50 came out at 0.028 µM at human cyclin D1-CDK4, 11.9 µM at human cyclin E-CDK2, 1.8 µM at human cyclin B-CDK1 and 3.8 µM with HCT116.
Regarding `CC(=O)Nc1ccc(C(=O)c2sc(Nc3ccc(N4CCN(C(C)C)CC4)cc3)nc2N)cc1` [Example 45], the IC50 against human cyclin D1-CDK4 came out at 0.025 µM; on human cyclin E-CDK2, 4.9 µM; against human cyclin B-CDK1, 5.6 µM; with HCT116, 2.9 µM.
Turning to `CCN(CC)c1ccc(C(=O)c2sc(Nc3ccc(N4CCN(C(C)C)CC4)cc3)nc2N)cc1` [Example 46, [4-Amino-2-[[4-[4-(1-methylethyl)-1-piperazinyl]phenyl]amino]-5-thiazolyl][4-(diethylamino)phenyl]methanone], the IC50 came out at 0.014 µM at human cyclin D1-CDK4, 5.2 µM against human cyclin E-CDK2, 3.6 µM against human cyclin B-CDK1 and 3.6 µM in the test on HCT116.
Turning to `CC(=O)N1CCN(c2ccc(Nc3nc(N)c(C(=O)c4ccc5c(c4)OCO5)s3)cc2)CC1` [Example 47, 1-Acetyl-4-[4-[[4-amino-5-[(1,3-benzodioxol-5-yl)carbonyl]-2-thiazolyl]amino]phenyl]piperazine], the IC50 was determined as 0.043 µM against human cyclin D1-CDK4, 0.9 µM against human cyclin E-CDK2, 0.5 µM on human cyclin B-CDK1 and 2.8 µM in the test with HCT116.
As for `CCN(CC)c1ccc(C(=O)c2sc(Nc3ccc(N4CCN(C(C)=O)CC4)cc3)nc2N)cc1` [Example 48, 1-Acetyl-4-[4-[[4-amino-5-[4-(diethylamino)benzoyl]-2-thiazolyl]amino]phenyl]piperazine], the IC50 against human cyclin D1-CDK4 came to 0.01 µM; against human cyclin E-CDK2, 7.1 µM; at human cyclin B-CDK1, 2.3 µM; in the test with HCT116, 13.3 µM.
